Measured values taken from patent US10758536B2, “Method for treating shingles with N-methanocarbathymidine (N-MCT)” (priority 2015, dated 2020).
In brackets after ≈: the same amount, converted by molar mass. Entries after “also recorded” stand apart in the source; their conditions may differ.

Tests used:
[1] = Mouse weights and tolerability
Experimental: CB.17 scid/beige male mice were implanted subcutaneously with human fetal skin (the same type of specimens used for the skin organ culture assay). After 3 weeks engraftment period, the skin implants were inoculated with VZV-BAC-Luc. The mice were divided into 5 groups of 12 mice: vehicle, positive control drug, N-MCT low dose, medium dose, and high dose (see FIGS. 3A, 3B, 4A and 4B). Treatment began approximately 2 hours after the inoculation surgery and was administered by oral gavage. Treatment continued twice daily (8:30 am and 8:30 pm) on Days 1-7. The mice were scanned in the IVIS-200 instrument daily from Day 1-8. The mice were weighed before the start of the study and daily during the treatment phase.
CB.17 scid/beige male mice were implanted subcutaneously with human fetal skin (the same type of specimens used for the skin organ culture assay). After 3 weeks engraftment period, the skin implants were inoculated with VZV-BAC-Luc (5×10^3 pfu/implant). The mice were divided into 5 groups of 12 mice: vehicle, positive control drug cidofovir delayed to Days 4-11, N-MCT 50 mg/kg Days 0-7, Days 4-11, or Days 7-13 (see Table 6 below). Treatment began approximately 2 hours after the inoculation surgery and was administered by oral gavage. Treatment continued twice daily (8:30 am and 8:30 pm) on schedule. […] The mice were scanned in the IVIS-200 instrument daily from Day 1-14. The mice were weighed before the start of the study and daily during the treatment phase. The antiviral effects of N-MCT were determined by assessing the VZV growth kinetics and rates (Log10 Total Flux/day).
The animals used in this experiment were SCID-beige mice purchased from Taconic (age 6-7 weeks).

VZV [2] = experiment: Delayed N-MCT treatment in SCID-Hu mice; assay type: in vivo, varicella-zoster virus; conditions: 50 mg/kg p.o. BID; treatment delayed 3 or 7 days after VZV infection
Experimental: Statistical analysis: Data were analyzed using Student's t test or one-way ANOVA and Dunnett's Multiple Comparison post hoc tests. Calculations were made using GraphPad Prism 5.02 for Windows (GraphPad Software, San Diego, Calif., www.graphpad.com). A p<0.05 was considered statistically significant.

VZV [3] = experiment: EC50 determination in HFFs, VZV-BAC-Luc bioluminescence; assay type: cell-based, varicella-zoster virus
Experimental: Human foreskin fibroblasts (HFFs) (CCD-1137Sk; American Type Culture Collection), used prior to passage 20 were grown in Eagle minimum essential medium with Earle's salts and L-glutamine (HyClone Laboratories), supplemented with 10% heat-inactivated fetal bovine serum (Benchmark FBS; Gemini Bio Products), penicillin-streptomycin (5000 IU/mL), amphotericin B (250 µg/mL), and nonessential amino acids (all Mediatech). VZV-BAC-Luc (Zhang et al., 2007), derived from the Parental Oka (POka, Accession number: AB097933) strain was propagated in HFFs. To prepare the virus for inoculation, VZV-infected HFFs were trypsinized, then washed and resuspended in TCM, and used immediately for direct injection. Each tissue was injected twice with 30 μL of the cell suspension using a 1 cc syringe fitted with a 27-gauge needle attached to a volumetric stepper (Tridak). […]
The first question we addressed was whether N-MCT was effective against VZV in cultured cells. A standard EC50 evaluation was performed using the VZV-BAC-Luc strain and virus yield was measured by bioluminescence. […]
Cells were treated for 48 hpi (hour post infection) and the medium containing the drug was changed after 24 h. VZV spread was measured by bioluminescence imaging at 48 hpi and expressed as Total Flux (photons/sec/cm^2/steradian). […]

VZV [4] = experiment: Skin organ culture assay, drug in medium; assay type: cell-based, varicella-zoster virus
Experimental: Human foreskin fibroblasts (HFFs) (CCD-1137Sk; American Type Culture Collection), used prior to passage 20 were grown in Eagle minimum essential medium with Earle's salts and L-glutamine (HyClone Laboratories), supplemented with 10% heat-inactivated fetal bovine serum (Benchmark FBS; Gemini Bio Products), penicillin-streptomycin (5000 IU/mL), amphotericin B (250 µg/mL), and nonessential amino acids (all Mediatech). VZV-BAC-Luc (Zhang et al., 2007), derived from the Parental Oka (POka, Accession number: AB097933) strain was propagated in HFFs. To prepare the virus for inoculation, VZV-infected HFFs were trypsinized, then washed and resuspended in TCM, and used immediately for direct injection. Each tissue was injected twice with 30 μL of the cell suspension using a 1 cc syringe fitted with a 27-gauge needle attached to a volumetric stepper (Tridak). The needle was lightly dragged across the tissue approximately 5 times to scarify the surface to increase infection. Tissues were incubated at 37° C. for 3 h to allow the virus to adhere, and then placed individually on NetWells that had contact with 1.0 mL of tissue culture medium. The cell-associated VZV inoculum was titered on MeWo cells (Taylor and Moffat, 2005) and was typically 1.5×10^6 pfu/mL, which is approximately 9×10^4 pfu/tissue.
In skin organ culture, higher concentrations of N-MCT were needed to reduce VZV spread; virus yield was reduced ˜100-fold when [N-MCT] was greater than 10 μg/mL.

VZV [5] = experiment: Skin organ culture topical Assay 1: dose dependence (carbopol gel); assay type: cell-based, varicella-zoster virus
Experimental: Place 36 mL deionized sterile water into small beaker with stir bar. Slowly waft 900 mg of carbopol (980 NF, Lot # CCONLCC013, Lubrizol Corp) into water, avoiding clumps. Add equal volume N-MCT in 20% hydroxypropyl-β-cyclodextrin (Sigma) at 2× to reach the desired concentration. Add 2 drops NaOH (18% solution) to attain a pH near 5.0. Store at 4° C. The 0.5% cidofovir gel was made in a similar manner except that cidofovir was dissolved in water. The DMSO vehicle was prepared by adding a 2% DMSO solution in water to the carbopol suspension at a 1:1 ratio. Hydroxypropyl-β-cyclodextrin (HPBCD) was prepared by mixing 5.0 g with 20 mL sterile water. Stock solution of N-MCT was prepared by dissolving 90 mg N-MCT in 9 mL 20% HPBCD and sonicating for 1 min.
A skin organ culture model was used to evaluate N-MCT as a topical treatment for VZV. Human skin explants were inoculated with VZV by scarification and treated daily from 1-4 days post infection with N-MCT (0.05, 0.5, or 5%) or cidofovir (0.5%, positive control) in a carbopol gel.
Human fetal skin was purchased from ABR and delivered by overnight courier on wet ice. The tissue was cleaned, disinfected in betadine and 70% ethanol, then cut into pieces approximately 1-cm^2. Each piece was inoculated with VZV-BAC-Luc strain that expresses firefly luciferase. Approximately 3 hours after inoculation, the pieces of skin were placed in NetWells above tissue culture medium and incubated overnight. The next day (Day 1) each piece of skin was soaked in D-luciferin for 45 min, and then scanned in the IVIS-50 instrument to measure Total Flux, which is a correlate of VZV pfu. The drug treatment began on Day 1 or later by spreading an aqueous gel (carbopol) containing N-MCT at concentrations of 0.05, 0.5, or 5% (see Assay 1 in Table 4 below). One group of skin was treated with cidofovir ([…] in carbopol gel) for a positive control. Each group contained 4-6 pieces of skin. The drug was applied daily until Day 5 (or other intervals), and then the skin pieces were scanned by IVIS to determine virus yield. […] The results were analyzed for statistical significance by ANOVA and Dunnett's post hoc test of multiple comparisons (GraphPad Prism).

[6] = 50 mg/kg oral gavage, delayed-treatment study
[7] = all doses, dose-range study in mice

In the case of Cc1cn([C@]23C[C@H](O)[C@@H](CO)[C@@H]2C3)c(=O)[nH]c1=O [N-MCT, N-methanocarbathymidine], the tolerability [1, 6] is reported as “well tolerated; also recorded: well-tolerated”, the weight loss [1, 6] is reported as “minimal weight loss” and the tolerability [1, 7] is reported as “well tolerated”. For the same molecule, the weight loss [1, 7] was “did not cause excessive weight loss”, the “effectiveness in vivo when treatment is delayed” value (VZV [2]) was “effective; also recorded: can be delayed up to one week after infection” and the EC50 (VZV [3]; Human alphaherpesvirus 3, Fibroblast, human foreskin fibroblasts, VZV-BAC-Luc, bioluminescence at 48 hpi) was 0.06 µg/mL (≈ 0.238 µM). For the same molecule, the EC50 (VZV [3]; Human alphaherpesvirus 3, cultured cells) was 0.06 µg/mL (≈ 0.238 µM), the “VZV growth in skin organ culture” value (VZV [4]; FIG. 2) was “prevents VZV growth” and the virus yield reduction (VZV [4]; [N-MCT] greater than 10 μg/mL, skin organ culture) was roughly 100 fold. For the same molecule, the “concentrations at which N-MCT prevents VZV spread in human skin explants” value (VZV [4]; human skin explants, drug in medium) was greater than 10 µg/mL, the “VZV yield compared to vehicle” value (VZV [5]; N-MCT 0.05, 0.5, 5% or cidofovir in carbopol gel, daily, p<0.0004) was “significantly reduced” and the “VZV replication in skin explants, topical gel” value (VZV [5]; N-MCT 0.05-5%, cidofovir 0.5% in carbopol gel) was “prevented VZV replication”. The “reduction of virus yield compared to the vehicle group” value (VZV [5]; all concentrations, topical carbopol gel, p=0.0004) was “approximately 100 fold” and the “effective topical concentration, as low as” value (VZV [5]; carbopol gel with 10% hydroxypropyl-β-cyclodextrin, human skin explants) was no less than 0.05%.
